Data published in patent US7511119B2, “PRAME peptide analogues” (MannKind Corporation, priority 2005, dated 2009).
Square brackets hold non-standard residues; d marks the D form. Ends that are not written are not given here. Peptide text beside a SMILES is read from it. Phg = N[C@H](C(=O)O)c1ccccc1; Nle = CCCC[C@H](N)C(=O)O; Nva = CCC[C@H](N)C(=O)O

Tests used:
HLA-A*0201 = HLA-A*0201 (Homo sapiens, UniProt P04439, D140Y/D185E/D98H/E176V/E277Q/G131W/G231S/I119V/I121R/I166T/I218V/L300P/L318F/N151K/N90K/P208A/P217A/Q86G/Q94H/R138H/R169H/T345S); test: Peptide binding using T2 cells; details: half maximal binding of wild-type peptide relative to analog;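 note: Read-out is peptide-induced stabilization of HLA-A*0201 on the cell surface, reflecting mainly Kon at limiting peptide levels and both Kon and Koff at saturating levels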
From the text: Thus, at limiting concentrations of peptide, it is a measurement of Kon mostly and at saturation levels of peptide it is a measurement of both Kon and Koff.
Thus, at limiting concentrations of peptide, this is a measurement of Kon mostly and at saturation levels of peptide that is a measurement of both Kon and Koff.

[1] = test system: T cell lines against natural epitope SSX-241-49; test: Cross-reactivity and functional avidity: IFN-gamma production by T cell lines raised against natural SSX-2 41-49; type: cell-based, HHD transgenic mice; details: T cells raised to native peptide tested on analogs; footnote * and unit not given;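 note: analogs presented ex vivo by competent APCs to T cells specific for the non-mutated epitope, scored by lowest activating concentration, peak cytokine effect and concentration at that peak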
HLA-A*0201 on T2 cells = target: T1, HLA-A*0201 on T2 cells (human); test: T2 cells, wild-type/analog half-maximal binding
T1 construct: whole, on cells; Class I MHC on the surface of T2 cells, detected with a fluorescent anti-A2 antibody; beta2-microglobulin is not mentioned for this assay; also called MHC class I (A2 allele)

[2] = target: T2, HLA-A*0201 class I monomer of the iTopia Epitope Discovery System; test: iTopia affinity assay
T2 construct: also called A0201 restricted MHC Class 1 molecules; MHC monomer

| Molecule | Relative affinity (1/RA) (HLA-A*0201) | Cross-reactivity and fct avidity (native to analogs)* [1] | Relative affinity (1/RA) (HLA-A*0201 on T2 cells) | further results |
| --- | --- | --- | --- | --- |
| CCCC[C@H](NC(=O)[C@H](CCCCN)NC(=O)[C@H](CCC(=O)O)NC(=O)[C@H](CO)NC(=O)[C@@H](NC(=O)[C@@H](N)Cc1ccccc1)C(C)C)C(=O)N[C@@H](Cc1ccccc1)C(=O)N[C@@H](Cc1ccc(O)cc1)C(=O)N[C@H](C(=O)O)C(C)C [SSX2 41-49 (K41F, A42V, I46Nle), FVSEK(Nle)FYV] (H-FVSEK[Nle]FYV-OH) | 1.1 | 10 | – | – |
| CCCC[C@H](NC(=O)[C@H](CO)NC(=O)[C@@H](NC(=O)[C@@H](N)Cc1ccccc1)C(C)C)C(=O)N[C@@H](CCCCN)C(=O)N[C@H](C(=O)N[C@@H](Cc1ccccc1)C(=O)N[C@@H](Cc1ccc(O)cc1)C(=O)N[C@H](C(=O)O)C(C)C)[C@@H](C)CC [SSX2 41-49 (K41F, A42V, E44Nle), FVS(Nle)KIFYV] (H-FVS[Nle]KIFYV-OH) | 1.1 | 10 | – | – |
| FVSEKIFYV [SSX2 41-49 (K41F, A42V)] | 3.1 | 0.1 | – | – |
| FVSEKLFTV [SSX2 41-49 (K41F, A42V, I46L, Y48T)] | 2.6 | >10 | – | – |
| FVSDKIFYV [SSX2 41-49 (K41F, A42V, E44D)] | 1.1 | >10 | – | – |
| CC[C@H](C)[C@H](NC(=O)[C@H](CCCCN)NC(=O)[C@H](CCC(=O)O)NC(=O)[C@H](CO)NC(=O)[C@@H](NC(=O)[C@@H](N)Cc1ccc(O)cc1)C(C)C)C(=O)N[C@@H](Cc1ccccc1)C(=O)N[C@@H](Cc1ccc(O)cc1)C(=O)N[C@H](C(=O)O)C(C)C [SSX2 41-49 (K41Y, A42V)] | 1.0 | 0.1 | – | – |
| CC[C@H](C)[C@H](NC(=O)[C@H](CCCCN)NC(=O)[C@H](CCC(=O)O)NC(=O)[C@H](CO)NC(=O)[C@@H](NC(=O)[C@@H](N)Cc1ccccc1)C(C)C)C(=O)N[C@@H](Cc1ccccc1)C(=O)N[C@@H](Cc1ccccc1)C(=O)N[C@H](C(=O)O)C(C)C [SSX2 41-49 (K41F, A42V, Y48F)] | 1.7 | 10 | – | – |
| FVSEKIFTV-OH [SSX2 41-49 (K41F, A42V, Y48T)] | 3.8 | >10 | – | – |
| FVS[Nle]KIFYV (also called FVS(Nle)KIFYV) [SSX2 41-49 (K41F, A42V, E44Nle)] | – | – | 1.1 1/RA | – |
| FVSEKIFXV (P8 = Phe(4-F), 4-fluorophenylalanine, also called FVSEKIF(Phe-4F)V) [SSX2 41-49 (K41F, A42V, Y48(Phe-4F))] | – | – | 1.4 1/RA | – |
| FVS[Nva]KIFYV (also called FVS(Nva)KIFYV) [SSX2 41-49 (K41F, A42V, E44Nva)] | – | – | 3.9 1/RA | – |
| S[Nva]LQHLIGL [PRAME425-433 analog with Nva at P2] | – | – | – | fold reduction of affinity (ED50) against the native peptide [2]: ≤ 3 fold |
| FVSEKIF[Phg]V (also called FVSEKIF(Phg)V) [SSX2 41-49 (K41F, A42V, Y48Phg)] | – | – | 2.5 1/RA | – |
| FVSDKIFYV [SSX2 41-49 (K41F, A42V, E44D)] | – | – | 1.1 1/RA | – |
| FVSQKIFYV [SSX2 41-49 (K41F, A42V, E44Q)] | – | – | 0.4 1/RA | – |
| FVSEKLFYV [SSX2 41-49 (K41F, A42V, I46L)] | – | – | 1.9 1/RA | – |
| FVSEKLFSA [SSX2 41-49 (K41F, A42V, I46L, Y48S, V49A)] | – | – | 2.4 1/RA | – |
| FVSEKIFFV [SSX2 41-49 (K41F, A42V, Y48F)] | – | – | 1.7 1/RA | – |
| FVSEKLFTV [SSX2 41-49 (K41F, A42V, I46L, Y48T)] | – | – | 2.6 1/RA | – |
| FVSEKIFSV [SSX2 41-49 (K41F, A42V, Y48S)] | – | – | 3.9 1/RA | – |
| FVSEKIFTV [SSX2 41-49 (K41F, A42V, Y48T)] | – | – | 3.8 1/RA | – |
| FVSEK[Nva]FYV (also called FVSEK(Nva)FYV) [SSX2 41-49 (K41F, A42V, I46Nva)] | – | – | 2.4 1/RA | – |
| FVSEK[Nle]FYV (also called FVSEK(Nle)FYV) [SSX2 41-49 (K41F, A42V, I46Nle)] | – | – | 1.1 1/RA | – |
